Like-named read-outs stand apart in the source and are kept apart here.
Tests used:
histamine H2-receptors [1] = target: T1, histamine H2-receptors (Rattus norvegicus, UniProt P25102); experiment: In vivo anti-secretory activity in histamine-induced gastric secretion (stomach perfused rat); conditions: iv
T1 construct: from tissue; host or cells: stomach of the anaesthetised rat, in vivo
Description: The preparation of the animals in general anaesthesia (urethane, 1 gm/kg i.p.) and constant temperature, is achieved by inserting and typing in place polyethyl tubes (PE 50) in the esophagus and in the pyloric-antral region. After the stomach is washed to remove residual food, continuous perfusion of the stomach is started with saline, 0.5 ml/min (37° C.), primed by a Jobling peristaltic pump. After 30 minutes of perfusion adaptation, the stomach perfusate is collected in 30 minute samples, and the samples are titrated for acid content, expressed as μEq of 1 N NaOH. As acid output becomes constant, as a control, intravenous perfusion of histamine (1 mg/kg.hr) is started and maintained throughout the experimental period. […] The ED50 values are then calculated by standard procedure.

histamine H2-receptors [2] = target: T2, histamine H2-receptors (Cavia porcellus, UniProt P47747); experiment: In vitro inhibitory activity in histamine-induced tachycardia (positive chronotropic effect, isolated guinea pig atria); format: cell-based; conditions: reduction of histamine (10^-6 g/ml) H2-evoked response, pH 7.4, 32° C.
T2 construct: isolated guinea pig atria suspended in an organ bath; from tissue; host or cells: isolated guinea pig atria
Description: The positive chronotropic effect has been investigated in isolated guinea pig atria suspended in an organ bath (50 ml) containing oxygenated (O2 : 95%, CO2 : 5%) Krebs-Henseleit solution (pH 7.4) maintained at 32° C. The myocardial preparation, loaded at 1 gm of isometric tension, is allowed to stabilize for 60 minutes and myocardial contractions are recorded through an isometric lever connected to a strain-gauge coupler. The instantaneous rate is monitored with a cardiotachymeter and a heat-writing pen recorder. After a control run, responses (tachycardia) to histamine (10^-6 g/ml) are obtained three times at 30 minute intervals. The test compounds are added to the bath to the desired final concentration, and the atria are again injected with histamine. The chronotropic response obtained in the presence of the antagonist is then compared to the control response to histamine, and the percent reduction of the histamine H2 -evoked response is calculated. […] 3 Smooth Muscle, Ed Daniel E. E. Patron, M., Plenum Press. New York (1975), and Ash and Schild, Br. J. Pharmacol. Chemother. 27 427-439 (1966).

[3] = in vivo; cited from earlier work
[4] = in vivo; cited from earlier work; remark: listed apart in the source
H2-receptor [5] = conditions: cited from earlier work; for Potency as H2-receptor antagonist: in vitro testing, vs cimetidine
H2-receptor [6] = conditions: in man, vs burimamide; cited from earlier work
[7] = in vivo; cited from earlier work; remark: listed apart in the source
gastric acid secretion = conditions: in vivo testing, vs cimetidine; cited from earlier work
[8] = stomach perfused rat, histamine 1 mg/kg.hr i.v., expressed with regard to the compound as a base, read-out: ED50

T2 sequence (P47747 whole entry): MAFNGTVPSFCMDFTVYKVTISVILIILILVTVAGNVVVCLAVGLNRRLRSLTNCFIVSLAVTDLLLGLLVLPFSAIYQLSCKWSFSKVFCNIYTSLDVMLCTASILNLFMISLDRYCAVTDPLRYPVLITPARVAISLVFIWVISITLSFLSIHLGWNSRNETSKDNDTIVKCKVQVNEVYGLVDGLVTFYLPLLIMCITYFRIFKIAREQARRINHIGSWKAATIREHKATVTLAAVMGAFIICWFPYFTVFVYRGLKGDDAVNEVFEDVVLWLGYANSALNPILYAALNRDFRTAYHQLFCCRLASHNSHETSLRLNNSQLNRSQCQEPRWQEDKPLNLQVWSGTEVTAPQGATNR
T1 sequence (P25102 whole entry, the tested form may be a part): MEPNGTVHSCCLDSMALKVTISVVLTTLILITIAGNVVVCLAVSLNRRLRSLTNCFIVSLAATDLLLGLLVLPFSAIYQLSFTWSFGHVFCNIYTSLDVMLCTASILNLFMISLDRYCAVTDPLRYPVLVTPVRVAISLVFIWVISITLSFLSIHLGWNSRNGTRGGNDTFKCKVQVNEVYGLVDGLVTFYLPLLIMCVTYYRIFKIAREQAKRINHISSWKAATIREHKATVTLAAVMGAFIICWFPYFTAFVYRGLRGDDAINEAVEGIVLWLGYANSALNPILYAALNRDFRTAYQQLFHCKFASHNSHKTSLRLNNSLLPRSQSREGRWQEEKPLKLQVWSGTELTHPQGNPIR

Structure (SMILES) | ED50 (histamine H2-receptors [1]; [8]) | EC50 (histamine H2-receptors [2]) | also measured
CC(C)NC=Nc1ccc(-c2c[nH]cn2)cc1 [B, N-Isopropyl-N'-[4-(imidazol-4-yl)-phenyl]-formamidine] | 0.0129 mg/kg | 92 nM | 
C=CCNC=Nc1ccc(-c2c[nH]cn2)cc1 [C, N-Allyl-N'-[4-(imidazol-4-yl)-phenyl]-formamidine] | 0.024 mg/kg | 93 nM | 
CN/C(=N/CCSCc1nc[nH]c1C)NC#N [Cimetidine] |  |  | ED50 (histamine H2-receptors [1]; rat): 0.56 mg/kg; Toxic side effects [3]: devoid of the toxic side effects of metiamide; Half-life [4]: relatively short; Potency as H2-antagonist (H2-receptor [5]; cimetidine vs metiamide): as potent as metiamide
CCNC=Nc1ccc(-c2c[nH]cn2)cc1 [Compound A, N-Ethyl-N'-[4-(imidazol-4-yl)-phenyl]-formamidine] | 0.02 mg/kg | 300 nM | 
CCC(C)NC=Nc1ccc(-c2c[nH]cn2)cc1 (centres unmarked) [Compound E, N-sec-Butyl-N'-[4-(imidazol-4-yl)-phenyl]-formamidine] | 0.0223 mg/kg | 150 nM | 
CCCNC=Nc1ccc(-c2c[nH]cn2)cc1 [D, N-n-Propyl-N'-[4-(imidazol-4-yl)-phenyl]-formamidine] | 0.0111 mg/kg | 44 nM | 
CC(C)CNC=Nc1ccc(-c2c[nH]cn2)cc1 [F, N-Isobutyl-N'-[4-(imidazol-4-yl)-phenyl]-formamidine] | 0.0259 mg/kg | 65 nM | 
CC(C)=CCNC=Nc1ccc(-c2c[nH]cn2)cc1 [G] | 0.0559 mg/kg | 74 nM | 
C(=Nc1ccc(-c2c[nH]cn2)cc1)NCC1CC1 [H, N-Cyclopropylmethyl-N'-[4-(imidazol-4-yl)-phenyl]-formamidine] | 0.0235 mg/kg | 48 nM | 
C(=Nc1ccc(-c2c[nH]cn2)cc1)NC1CC1 [I, N-Cyclopropyl-N'-[4-(imidazol-4-yl)-phenyl]-formamidine] | 0.0366 mg/kg | 379 nM | 
C=CC(C)NC=Nc1ccc(-c2c[nH]cn2)cc1 (stereo not drawn) [J, N-(α-Methylallyl)-N'-[4-(imidazol-4-yl)-phenyl]-formamidine] | 0.042 mg/kg | 168 nM | 
CC(C)(C)CNC=Nc1ccc(-c2c[nH]cn2)cc1 [K, N-Neopentyl-N'-[4-(imidazol-4-yl)-phenyl]-formamidine] | 0.03 mg/kg | 121 nM | 
CC1(C)CC1CNC=Nc1ccc(-c2c[nH]cn2)cc1 (centres unmarked) [L, N-(2,2-Dimethyl)-cyclopropylmethyl-N'-[4-(imidazol-4-yl)-phenyl]-formamidine] | 0.034 mg/kg | 500 nM | 
C/N=C(\S)NCCSCc1[nH]cnc1C [Metiamide] |  |  | Toxic side effects [3]: toxic side effects (agranulocytosis); Potency and oral activity (H2-receptor [6]): more potent and orally active in man than burimamide
CNC(=S)NCCCCc1cnc[nH]1 [burimamide] |  |  | Oral bioavailability [7]: seemed to lack sufficient oral bioavailability
CNC(=C[N+](=O)[O-])NCCSCc1ccc(CN(C)C)o1 [ranitidine] |  |  | Potency as H2-receptor antagonist (H2-receptor [5]): more potent than cimetidine; Potency as inhibitor of gastric acid secretion (gastric acid secretion): more potent than cimetidine
CNC(=NCCSCc1csc(N=C(N)N)n1)NC#N [tiotidine] |  |  | Potency as H2-receptor antagonist (H2-receptor [5]): more potent than cimetidine; Potency as inhibitor of gastric acid secretion (gastric acid secretion): more potent than cimetidine
